This assay addresses T1, Tyrosine-protein phosphatase non-receptor type 1 (Homo sapiens, UniProt P18031).
T1 sequence (P18031 whole entry): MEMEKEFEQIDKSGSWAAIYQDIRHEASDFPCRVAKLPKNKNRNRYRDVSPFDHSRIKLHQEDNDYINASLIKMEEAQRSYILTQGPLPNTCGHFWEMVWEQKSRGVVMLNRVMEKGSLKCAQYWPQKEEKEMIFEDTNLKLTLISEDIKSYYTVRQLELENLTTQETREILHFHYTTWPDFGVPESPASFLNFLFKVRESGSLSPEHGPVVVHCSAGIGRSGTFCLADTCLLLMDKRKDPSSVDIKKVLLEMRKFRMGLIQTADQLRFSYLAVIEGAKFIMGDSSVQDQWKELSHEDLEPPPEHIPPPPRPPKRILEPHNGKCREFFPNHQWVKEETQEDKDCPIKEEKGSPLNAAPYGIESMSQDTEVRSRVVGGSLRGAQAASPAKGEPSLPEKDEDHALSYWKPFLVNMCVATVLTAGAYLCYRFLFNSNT
Kind of assay: Inhibition of human recombinant PTP1B.

For `CC1(C)CC[C@]2(C)CC[C@]3(C(=O)O)C(=CC[C@@H]4[C@@]5(C)CCC(=O)C(C)(C)[C@@H]5CC[C@]43C)[C@@H]2C1`, the IC50 was found to be 6.8 µM.
For the compound `COC(=O)[C@@]12CC[C@@]3(C)CCC(C)(C)C[C@H]3C1=CC[C@@H]1[C@@]3(C)CC[C@H](O)C(C)(C)C3CC[C@]12C` (some centres undefined), the concentration for half-maximal inhibition (IC50) is 16 µM.
With `CC1(C)CC[C@]2(C)CC[C@]3(C(=O)O)C(=CC[C@@H]4[C@@]5(C)CC[C@@H](O)[C@](C)(CO)C5CC[C@]43C)[C@@H]2C1` (some centres undefined), the IC50 is 11.7 µM.
Turning to `CC(=O)O[C@H]1CC[C@@]2(C)C(CC[C@]3(C)[C@@H]2CC=C2[C@@H]4CC(C)(C)CC[C@]4(C)CC[C@]23C(=O)O)C1(C)C` (some centres undefined), the IC50 was 8.5 µM.
As to `CC1(C)CC[C@]2(C)CC[C@]3(C(=O)O)C(=CC[C@@H]4[C@@]5(C)CC[C@H](O)C(C)(C)C5CC[C@]43C)[C@@H]2C1` (some centres undefined), the IC50 was found to be 5.2 µM.
On to `CC1(C)CC[C@]2(C)CC[C@]3(C(=O)O)C(=CC[C@@H]4[C@@]5(C)CC[C@H](O)C(C)(C)C5[C@H](O)C[C@]43C)[C@@H]2C1` (some centres undefined), for which the IC50 was found to be 12.8 µM.
Take `C[C@H]1[C@H](C)CC[C@]2(C)CC[C@]3(C(=O)O)C(=CC[C@@H]4[C@@]5(C)CC[C@H](O)C(C)(C)C5CC[C@]43C)[C@H]12` (some centres undefined): the IC50 came to 4.9 µM.
In the case of `COC(=O)[C@@]12CCC3C(=CC[C@H]4[C@@]3(C)CCC3C(C)(C)[C@@H](O)CC[C@@]34C)[C@@H]1CC(C)(C)CC2` (some centres undefined), the half-maximal inhibitory concentration (IC50) worked out at 14.2 µM.
To `CC1(C)[C@@H](O[C@H]2O[C@H](C(=O)O)[C@@H](O)[C@H](O)[C@H]2O[C@@H]2O[C@H](C(=O)O)[C@@H](O)[C@H](O)[C@H]2O)CC[C@]2(C)[C@H]3C(=O)C=C4[C@@H]5C[C@@](C)(C(=O)O)CC[C@]5(C)CC[C@@]4(C)[C@]3(C)CC[C@@H]12` [GLYCYRRHIZIN] belongs above 100 µM.

For the origin of these results see ChEMBL document CHEMBL1147808, “Protein tyrosine phosphatase 1B inhibitory activity of triterpenes isolated from Astilbe koreana” (Bioorg Med Chem Lett, 2006).
